Measurements as given in patent US20250051277A1, “DELIVERY OF THERAPEUTIC ALKALOID COMPOUNDS” (Sensorium Therapeutics, Inc., priority 2021, published 2025).
Like-named read-outs stand apart in the source and are kept apart here. Marks after values point to notes of the source that are not given here.

Assays:
[1] = format: physicochemical; settings: SGF with pepsin, pH 1.5, 37° C.; for Condition 1 Conversion (%): 0.5 mM; for Condition 1 Conversion (%), first value of pair x/y: first of two values; for Condition 1 Conversion (%), second value of pair x/y: second of two values
[2] = format: physicochemical; settings: DI water, 25° C., 0.5 mM

Compound | Condition 1 Conversion (%) ([1]; time 1 min) | Condition 1 Conversion (%) ([1]; time 5 min) | Condition 1 Conversion (%) ([1]; time 30 min) | Condition 1 Conversion (%) ([1]; time 1 h) | Condition 1 Conversion (%) ([1]; time 4 h) | Condition 1 Conversion (%) ([1]; time 24 h) | Condition 2 Conversion (%) ([2]; time 1 min) | Condition 2 Conversion (%) ([2]; time 5 min) | Condition 2 Conversion (%) ([2]; time 30 min) | Condition 2 Conversion (%) ([2]; time 1 h) | Condition 2 Conversion (%) ([2]; time 4 h) | Condition 2 Conversion (%) ([2]; time 24 h) | Condition 1 Conversion (%), first value of pair x/y ([1]; time 1 h) [%] | Condition 1 Conversion (%), second value of pair x/y ([1]; time 1 h) [%] | Condition 1 Conversion (%), first value of pair x/y ([1]; time 4 h) [%] | Condition 1 Conversion (%), second value of pair x/y ([1]; time 4 h) [%] | Condition 1 Conversion (%), first value of pair x/y ([1]; time 24 h) [%] | Condition 1 Conversion (%), second value of pair x/y ([1]; time 24 h) [%]
COc1ccc([C@]23CCN(C)[C@H]2CC(OC)(OC)CC3)cc1OC (stereo in doubt) [Compound 190, 3a-(3,4-dimethoxyphenyl)-6,6-dimethoxy-1-methyl-2,3,4,5,7,7a-hexahydroindole] | 0 | 8.30 | 82.97 | 100 | 100 | 100 | 0% | 0% | 0 | 0 | 0 | 0 | – | – | – | – | – | –
COc1ccc(C23CCC(=NNC(=O)Nc4ccccc4)C[C@@H]2N(C)CC3)cc1OC (stereo in doubt) [Compound 198, 1-[[(3aR)-3a-(3,4-dimethoxyphenyl)-1-methyl-2,3,4,5,7,7a-hexahydroindol-6-ylidene]amino]-3-phenyl-urea] | 0.86 | 1 | 1 | 1 | 1 | 1 | 0.2% | 0.21% | 0.22 | 0.55 | 0.89 | 0.8 | – | – | – | – | – | –
COc1ccc([C@]23CCN(C)[C@H]2CC2(CC3)OCC(c3ccc([N+](=O)[O-])cc3)O2)cc1OC (stereo partly drawn) [Compound 114, (3a'S,7a'S)-3a′-(3,4-dimethoxyphenyl)-1′-methyl-4-(4-nitrophenyl)octahydrospiro[[1,3]dioxolane-2,6′-indole]] | 0 | 0 | 0 | 0 | 0 | 0 | – | – | – | – | – | – | – | – | – | – | – | –
COc1ccc([C@@]23CCC(=NNC(=O)c4ccncc4)C[C@@H]2N(C)CC3)cc1OC [Compound 157, N-[[(3aS,7aS)-3a-(3,4-dimethoxyphenyl)-1-methyl-2,3,4,5,7,7a-hexahydroindol-6-ylidene]amino]pyridine-4-carboxamide] | 100 | 100 | 100 | 100 | 100 | 100 | – | – | – | – | – | – | – | – | – | – | – | –
COc1ccc([C@@]23CCC(=NNC(=O)CC[C@H](NC(=O)c4ccc(NCc5cnc6nc(N)nc(O)c6n5)cc4)C(=O)O)C[C@@H]2N(C)CC3)cc1OC [Compound 172, (2S)-5-[2-[(3aS,7aS)-3a-(3,4-dimethoxyphenyl)-1-methyl-2,3,4,5,7,7a-hexahydroindol-6-ylidene]hydrazino]-2-[[4-[(2-amino-4-hydroxy-pteridin-6-yl)methylamino]benzoyl]amino]-5-oxo-pentanoic acid] | 100 | 100 | 100 | 100 | 100 | 100 | 50* % | 70* % | 100 | 100 | 100 | 100 | – | – | – | – | – | –
COc1ccc([C@]23CCN(C)[C@H]2CC2(CC3)OC[C@H]([C@@H](O)[C@@H](O)Cn3c4nc(=O)[nH]c(=O)c-4nc4cc(C)c(C)cc43)O2)cc1OC (stereo partly drawn) [Compound 174, 10-[(2S,3S)-3-[(3′aS,4R)-3′a-(3,4-dimethoxyphenyl)-1′-methyl-spiro[1,3-dioxolane-2,6′-2,3,4,5,7,7a-hexahydroindole]-4-yl]-2,3-dihydroxy-propyl]-7,8-dimethyl-benzo[g]pteridine-2,4-dione] | 0 | 0 | 0 | 0 | 0 | 0 | – | – | – | – | – | – | – | – | – | – | – | –
COc1ccc([C@]23CCN(C)[C@H]2CC2(CC3)O[C@@H]([C@@H](O)Cn3c4nc(=O)[nH]c(=O)c-4nc4cc(C)c(C)cc43)[C@@H](CO)O2)cc1OC (stereo partly drawn) [Compound 196, 10-[(2S)-2-[(3′aS,4S,5R)-3′a-(3,4-dimethoxyphenyl)-5-(hydroxymethyl)-1′-methyl-spiro[1,3-dioxolane-2,6′-2,3,4,5,7,7a-hexahydroindole]-4-yl]-2-hydroxy-ethyl]-7,8-dimethyl-benzo[g]pteridine-2,4-dione] | 0 | 0 | 0 | 0 | 0 | 0 | – | – | – | – | – | – | – | – | – | – | – | –
COc1ccc([C@@]23CCC(=NOC(C)(C)C)C[C@@H]2N(C)CC3)cc1OC [Compound 199, (3aS)-N-tert-butoxy-3a-(3,4-dimethoxyphenyl)-1-methyl-2,3,4,5,7,7a-hexahydroindol-6-imine] | 0 | 0 | 0 | 4.2 | 23.6 | 27.3 | 0% | 0% | 0 | 0 | 0 | 0 | – | – | – | – | – | –
CCON=C1CC[C@@]2(c3ccc(OC)c(OC)c3)CCN(C)[C@H]2C1 [Compound 200, (3aS,7aS)-3a-(3,4-dimethoxyphenyl)-N-ethoxy-1-methyl-2,3,4,5,7,7a-hexahydroindol-6-imine] | 0 | 0 | 0 | 2.1 | 27.7 | 34.1 | 0% | 0% | 0 | 0 | 0 | 0 | – | – | – | – | – | –
COc1ccc([C@@]23CCC(=NOCC(=O)O)C[C@@H]2N(C)CC3)cc1OC [Compound 201, 2-[[(3aS,7aS)-3a-(3,4-dimethoxyphenyl)-1-methyl-2,3,4,5,7,7a-hexahydroindol-6-ylidene]amino]oxyacetic acid] | 0 | 0 | 0 | 0 | 7.1 | 14.7 | 0% | 0% | 0 | 0 | 0 | 0 | – | – | – | – | – | –
COc1ccc([C@@]23CCC(=NOCC(=O)OC(C)(C)C)C[C@@H]2N(C)CC3)cc1OC [Compound 202, tert-butyl 2-[[(3aS,7aS)-3a-(3,4-dimethoxyphenyl)-1-methyl-2,3,4,5,7,7a-hexahydroindol-6-ylidene]amino]oxyacetate] | 0 | 0 | 0 | – | – | – | 0% | 0% | 0 | 0 | 0 | 0 | 1.12 | 0 | 3.01 | 6.42 | 64.4 | 6.42
COc1ccc([C@@]23CCC(=NOCCO)C[C@@H]2N(C)CC3)cc1OC [Compound 203, 2-[[(3aS,7aS)-3a-(3,4-dimethoxyphenyl)-1-methyl-2,3,4,5,7,7a-hexahydroindol-6-ylidene]amino]oxyethanol] | 0 | 0 | 0 | 0 | 18.58 | 26.48 | 0% | 0% | 0 | 0 | 0 | 0 | – | – | – | – | – | –
CCCC1CO[C@]2(CC[C@@]3(c4ccc(OC)c(OC)c4)CCN(C)C3C2)O1 (stereo partly drawn) [Compound 212, (2R,3′aS)-3′a-(3,4-dimethoxyphenyl)-1′-methyl-4-propyl-spiro[1,3-dioxolane-2,6′-2,3,4,5,7,7a-hexahydroindole]] | 0 | 0 | 0 | 0 | 0 | 0 | – | – | – | – | – | – | – | – | – | – | – | –
CCCC1CO[C@@]2(CC[C@@]3(c4ccc(OC)c(OC)c4)CCN(C)C3C2)O1 (stereo partly drawn) [Compound 238, (2S,3′aS)-3′a-(3,4-dimethoxyphenyl)-1′-methyl-4-propyl-spiro[1,3-dioxolane-2,6′-2,3,4,5,7,7a-hexahydroindole]] | 0 | 0 | 0 | 0 | 0 | 0 | – | – | – | – | – | – | – | – | – | – | – | –
